# Measurements published in ChEMBL document CHEMBL6127077, “Discovery and biological evaluation of 6-aryl-4-(3,4,5-trimethoxyphenyl)quinoline derivatives with promising antitumor activities as novel colchicine-binding site inhibitors” (Eur J Med Chem, 2024).
# Activity calls are given as the source filed them. The rule behind the calls is not given here.
# Key:
# SGC-7901 = test: Antiproliferative activity against human SGC-7901 cells assessed as inhibition of cell growth incubated for 72 hrs by MTT assay; format: functional, cell-based; conditions: SGC-7901, 72 h
# Huh-7 = test: cells; conditions: Homo sapiens, Huh-7, 72 h
# Description: Antiproliferative activity against human Huh-7 cells assessed as inhibition of cell growth incubated for 72 hrs by MTT assay
# MCF7 = test: cells; conditions: Homo sapiens, MCF7, 72 h
# Description: Antiproliferative activity against human MCF7 cells assessed as inhibition of cell growth incubated for 72 hrs by MTT assay
# Tubulin (Homo sapiens) = Tubulin (Homo sapiens) (UniProt P68371+Q9H4B7+P0DPH7+P68366+Q13509+Q71U36+P04350+Q3ZCM7+P07437+P68363+Q9BQE3+Q6PEY2+Q13885+Q9BVA1+Q9BUF5); test: Inhibition of tubulin polymerization (unknown origin) at 5 uM by infinite F500 microplate reader analysis; format: protein-complex assay
IC50 (SGC-7901),IC50 (Huh-7),IC50 (MCF7),inhibition (Tubulin (Homo sapiens)),SMILES
17.3 µM,4.69 µM,> 100 µM,–,COc1ccccc1-c1ccc2nccc(-c3cc(OC)c(OC)c(OC)c3)c2c1
2.15 µM,3.67 µM,1.34 µM,–,COc1cc(-c2ccnc3ccc(-c4ccc(C)c(C)c4)cc23)cc(OC)c1OC
1.91 µM,0.32 µM,> 100 µM,–,COc1cc(-c2ccnc3ccc(-c4ccc(O)cc4)cc23)cc(OC)c1OC
9.11 µM,4.58 µM,22.1 µM,–,COc1cc(-c2ccnc3ccc(-c4cccnc4)cc23)cc(OC)c1OC
> 100 µM,39.8 µM,> 100 µM,–,COc1cc(-c2ccnc3ccc(-c4ccccc4C)cc23)cc(OC)c1OC
7.92 µM,1.15 µM,1.43 µM,–,COc1cc(-c2ccnc3ccc(-c4ccccc4)cc23)cc(OC)c1OC
25.3 µM,0.12 µM,3.62 µM,–,COc1ccc(-c2ccc3nccc(-c4cc(OC)c(OC)c(OC)c4)c3c2)cc1O
1.78 µM,0.27 µM,2.24 µM,–,COc1cc(-c2ccnc3ccc(-c4ccsc4)cc23)cc(OC)c1OC
–,–,–,Active,CC(=O)O[C@H]1C(=O)[C@@]2(C)[C@H]([C@H](OC(=O)c3ccccc3)[C@]3(O)C[C@H](OC(=O)[C@H](O)[C@@H](NC(=O)c4ccccc4)c4ccccc4)C(C)=C1C3(C)C)[C@]1(OC(C)=O)CO[C@@H]1C[C@@H]2O
> 100 µM,> 100 µM,44.5 µM,–,COc1cc(-c2ccnc3ccc(-c4ccncc4)cc23)cc(OC)c1OC
35 µM,1.32 µM,17.9 µM,–,COc1cc(-c2ccnc3ccc(-c4cccc(C)c4)cc23)cc(OC)c1OC
